From patent US20040266885A1, “Wood preservative compositions” (priority 2001, published 2004)
Several values for one entry are separate records, joined by “and”; a condition that tells them apart may be missing. Identical values can stand only once. Entries after “also recorded” stand apart in the source; their conditions may differ.

Test system: C. formosanus
Assay: Laboratory termite test, modified ASTM 3345-74, soil/sand culture, NaOH carrier, blocks not leached; as to Termite Attack Rating: key: Score 0: No attack; Score 1: Attempted attack; Score 2: Slight attack; Score 3: Average attack; Score 4: Strong attack
Type: in vivo
Settings: for termite survival / mortality at the end of the test period / Tunneling Activity / Visible Mortality / prevention of termite attack / restriction of termite damage: 4 weeks; for prevention of termite attack / restriction of termite damage: all concentrations used (1-10%); for Mean Rating (termite attack): mean of 4 specimens; for Mean Rating (termite attack) / Termite Attack Rating: 4 weeks soil/sand culture; for Termite Attack Rating: single specimen; for repellent effect (soil covering of test specimens): specimens treated with 5, 7 and 10% solutions only partially soil covered
Method: A further experiment was undertaken according to the modified ASTM 3345-74 test detailed in Example 2 with the following 6 changes to the protocol:
1. The solutions tested were as follows:
2. The incubation substrate was a soil/sand mixture (1:1) to which had been added 75 ml of de-ionised water. This substrate was chosen as being more representative of the laboratory conditions under which the wild caught termites (C. formosanus) were maintained.
3. The treated timber samples were positioned on plastic mesh on top of the soil substrate. This method of placement is that used in European Standard EN 117 and is more representative of the feeding conditions of the wild caught termites maintained in the laboratory.
4. 250 termites were used in each incubation vessel.
5. The wood block specimens were not subjected to a leaching process.
6. Evidence of termite tunneling activity and mortality was determined at completion of the incubation period only (4 weeks) and no examinations were undertaken for surface activity.

Compound | termiticidal and termite repellent activity (conclusion) | termite survival / mortality at the end of the test period | Tunneling Activity (solution conc. 1%) | Visible Mortality (solution conc. 1%) | Tunneling Activity (solution conc. 3%) | Visible Mortality (solution conc. 3%) | Tunneling Activity (solution conc. 5%) | Visible Mortality (solution conc. 5%) | Tunneling Activity (solution conc. 7%) | Visible Mortality (solution conc. 7%) | Tunneling Activity (solution conc. 10%) | Visible Mortality (solution conc. 10%) | prevention of termite attack / restriction of termite damage | Mean Rating (termite attack) (solution conc. 1%) | Termite Attack Rating (solution conc. 1%) | Mean Rating (termite attack) (solution conc. 3%) | Termite Attack Rating (solution conc. 3%) | Mean Rating (termite attack) (solution conc. 5%) | Termite Attack Rating (solution conc. 5%) | Mean Rating (termite attack) (solution conc. 7%) | further results
Oc1c(Br)cc(Cc2cc(Br)c(O)c(Br)c2)cc1Br [TBBF] | significant termiticidal and termite repellent activity | the majority of the termites were killed by the end of the test period | Yes | 34-66% | Yes | 34-66% | Yes | 67-100% | Yes | 67-100% | Yes | 67-100% | significant attack was prevented by all concentrations; also recorded: a very significant effect in restricting termite damage | 1.50 | 3 and 1 | 0.75 | 0 and 1 | 0.5 | 0 and 1 | 0.75 | toxic value, lower (concentration at which the wood is no longer sufficiently protected) (mean loading, solution concentration 1%, not leached): 6.78 kg/m^3; toxic value, upper (lowest concentration which protects the wood) (mean loading, solution concentration 3% (TBBF) or 1%, not leached): 20.53 kg/m^3; Termite Attack Rating (solution conc. 7%): 1 and 0; Mean Rating (termite attack) (solution conc. 10%): 0.5; Termite Attack Rating (solution conc. 10%): 1 and 0; repellent effect (soil covering of test specimens): a repellent effect
O=S(=O)(c1cc(Br)c(O)c(Br)c1)c1cc(Br)c(O)c(Br)c1 [TBBS] | significant termiticidal and termite repellent activity | significant termite mortality by the end of the test period | Yes | 67-100% | Yes | 34-66% and 67-100% | Yes | 67-100% | Yes | 67-100% and 100% | Yes | 34-66% and 67-100% | significant attack was prevented by all concentrations; also recorded: a very significant effect in restricting termite damage | 1.00 | 1 | 0.5 | 1 and 0 | 1.00 | 1 | 0.75 | Termite Attack Rating (solution conc. 7%): 1 and 0; Mean Rating (termite attack) (solution conc. 10%): 0.25; Termite Attack Rating (solution conc. 10%): 0 and 1; repellent effect (soil covering of test specimens): a repellent effect was noted
